The experiment addresses T1, Recombinant Human FAPα (Homo sapiens, UniProt Q12884).
T1 sequence (Q12884 1-760): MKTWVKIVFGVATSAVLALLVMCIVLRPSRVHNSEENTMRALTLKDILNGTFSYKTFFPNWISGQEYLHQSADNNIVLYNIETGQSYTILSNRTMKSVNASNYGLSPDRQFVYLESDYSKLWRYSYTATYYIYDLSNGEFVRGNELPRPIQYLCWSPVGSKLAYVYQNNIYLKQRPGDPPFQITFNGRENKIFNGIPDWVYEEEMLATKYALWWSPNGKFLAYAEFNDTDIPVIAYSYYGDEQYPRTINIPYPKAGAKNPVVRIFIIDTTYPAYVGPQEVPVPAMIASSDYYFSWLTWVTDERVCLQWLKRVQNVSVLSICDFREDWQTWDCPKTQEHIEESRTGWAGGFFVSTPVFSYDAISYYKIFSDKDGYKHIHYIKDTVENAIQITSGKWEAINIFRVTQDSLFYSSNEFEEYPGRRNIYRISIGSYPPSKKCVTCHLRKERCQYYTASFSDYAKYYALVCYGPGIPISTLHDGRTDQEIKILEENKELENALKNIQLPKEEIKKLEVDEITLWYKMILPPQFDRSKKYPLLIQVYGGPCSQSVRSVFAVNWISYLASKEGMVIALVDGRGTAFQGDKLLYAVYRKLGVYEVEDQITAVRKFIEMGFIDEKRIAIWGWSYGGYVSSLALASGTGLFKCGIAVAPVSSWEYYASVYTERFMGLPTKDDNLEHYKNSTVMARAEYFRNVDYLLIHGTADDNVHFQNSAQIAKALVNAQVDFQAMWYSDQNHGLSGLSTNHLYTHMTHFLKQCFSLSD
Put plainly: Fluorogenic substrate cleavage assay with FAPα. Type of experiment: biochemical. The conditions noted are these: 200 μM substrate, 37°C; 10 nM FAPα, 2 nM DPP4, 6 nM DPP9, 3-6 nM PREP.

Where no end group is shown, it is not given here.

On to “AACSFRINSLCG (also: sidechain bridge or staple (positions not given here)) [FAP-24]”, for which the “selectivity for FAPα over DPP4, DPP9 and PREP (in words)” value is “highest specificity”.
With “AACVSFQNLDCG (also: sidechain bridge or staple (positions not given here)) [FAP-33]” the entry was “highest specificity”.

The values above are taken from publication PMC11952493 (bioRxiv, 2025).
